Measured values from patent US20250152570A1 (AIR FORCE MEDICAL UNIVERSITY, priority 2022, published 2025).

Columns and labels:
[1] = system: TE10 cells; test: CCK8 cell proliferation, TE10; format: cell-based; conditions: compared with the blank control
Excerpt: (§1) At the same time, BI-D1870 was used as a positive control, and no drug was used as a blank control (Black).
(§2) The growth curve was drawn based on time and absorbance value.

[2] = system: ECA109 cells; test: CCK8 cell proliferation, ECA109; format: cell-based; conditions: compared with the blank control
Excerpt: as §1, §2

[3] = system: TE10 cells; test: Transwell migration assay, TE10; format: cell-based; conditions: compared with the blank control
Description: as §1
(§3) • (1) Digest cells. Wash once with PBS, resuspend in serum-free medium, and adjust the cell density to 5×10^5/ml. • (2) Add 500 μl of culture medium containing 10% fetal bovine serum to the lower chamber of the 24-well plate. Take 200 μl of cell suspension and add it to the chamber. Note that there are no bubbles between the chamber and the lower culture medium. • (3) Culture routinely for 16-24 h. • (4) Aspirate the culture medium in the chamber, fix the cells in the chamber with anhydrous methanol for 15 min, and rinse with PBS. • (5) Color: Add Gumsa staining solution to the 24-well plate, immerse the membrane in the staining solution for 20 min, and wash with PBS. • (6) Carefully wipe off the cells on the inner layer of the membrane with a cotton swab and air-dry the membrane. • (7) Take pictures under a microscope, count 5 high-power fields, and take the average value.

[4] = system: ECA109 cells; test: Transwell migration assay, ECA109; format: cell-based; conditions: compared with the blank control
Description: as §1, §3

[5] = system: KYSE450-IR; test: CCK8 proliferation of icotinib-resistant strain KYSE450-IR; format: cell-based; conditions: for proliferation of KYSE450-IR: 2 μm, CCK8, DMSO blank control
Description: (§4) The CCK-8 cell proliferation kit of Shanghai Taoshu Biotechnology Co., Ltd. was used. • (1) Cell suspension was inoculated in a 96-well plate, 100 μL per well, 2,000 cells per well. • (2) Culture or give drugs according to experimental needs, and treat for an appropriate time. • (3) Add 10 μL of CCK-8 solution to each well and incubate at 37° C. • (4) The absorbance value was determined by selecting a wavelength of 450 nm on the microplate reader. The growth curve was drawn based on time and absorbance value.
(§5) The expression level of EGFR and the sensitivity to icotinib and afatinib in various ESCC cell lines (T1, T10, T11, KYSE150, KYSE450, ECA109, EC9706) were detected. The cell line KYSE450 with high EGFR expression and sensitivity to afatinib (low IC50) was selected. The icotinib and afatinib drug concentration increasing mode of action was used to induce KYSE450 cells to produce drug resistance, and a stable cell line resistant to icotinib and afatinib was obtained. The optimal drug concentration gradient for inducing afatinib obtained from the literature reports and the preliminary experiments before formal induction culture was: 100 nM, 300 nM, 500 nM, 800 nM, 1 μM and 5 μM. The initial induction dose of this experiment was 100 nM, and the highest induction dose was 5 μM. During the induction period, the culture medium containing icotinib and afatinib was replaced every 2 days. When the initial induction dose was induced for two weeks and the cell growth was stable, the drug induction dose began to be doubled, and each dose was maintained for 14 days before reaching the highest induction dose. The drug-resistant cells obtained after 10 months of induction culture were named KYSE450/IR KYSE450/AR cell lines.

[6] = system: LLC (Lewis lung cancer); test: LLC (Lewis lung cancer) transplant tumor model; format: in vivo, C57BL/6 mice; conditions: Selonsertib 15 mg/kg per day i.p.; Anti-PD1 50 μg/kg once every two days; 20 days
Description: (§6) • (1) B16F10 (melanoma) and LLC (Lewis lung cancer) transplant tumor models were constructed in 6-8 week old C57BL/6 mice, with 6 mice in each group. Each mouse was subcutaneously injected with about 1×10^6 B16F10 cells and 5×10^6 LLC cells dissolved in 200 μl sterile PBS. • (2) When the tumor volume reached 150 mm^3, the mice were divided into groups and treated differently. […] The Anti-PD1 used in this experiment was specifically In VivoPlus anti-mouse PD-1 (CD279). • (3) The experimental observation time lasted for 10 days (melanoma) or 20 days (Lewis lung cancer). If the mice were infected or in poor condition, they were treated in time. During the period, the tumor volume was measured every 2 days, and the volume calculation formula was length×width 2×0.5. • (4) At the end of the experiment, the mice were killed, the subcutaneous tumors were removed, photographed, weighed, and counted.

[7] = system: RSK4 downstream substrates (P-RPS6, P-GSK3β); test: Western blot of phosphorylation level of RSK4 downstream substrates; format: cell-based; conditions: TE10, ECA109 cells
Description: Western blot was used to detect the effect of phosphorylation level of RSK4 downstream substrates.
(1) Protein extraction, using Kangwei Century RIPA lysis buffer. Place the cell culture flask on ice for 20 minutes, shake it back and forth, and blow it with a pipette. Scrape the cells with a cell scraper, transfer them to an EP tube, and centrifuge them at 4° C. 10-20 μl can be aspirated for protein quantification. Add loading buffer, boil for 5 min, centrifuge at 12000 rpm for 5 min, and store in an ultra-low temperature refrigerator. Tissue protein extraction: Grind in liquid nitrogen, transfer to EP tube after melting, lyse on ice for 20 min, and centrifuge at 4° C.
(2) Protein quantification, use the Kangwei Century BCA quantification kit. Make two replicate wells for each sample, take the average value to make a standard curve and calculate the sample concentration.
(3) Protein electrophoresis, use the Kangwei Century SDS-PAGE gel preparation kit. The separation gel concentration is 8%, and the concentration gel concentration is 5%. The separation gel is 1.5 cm away from the upper edge of the front glass plate and filled with water to seal the gel. Use filter paper to absorb the water sealing liquid, fill the concentrated gel, and insert the comb. The voltage is 100V constant for 1 h30 min until the bromophenol blue runs out and stops electrophoresis.
(4) Transfer to membrane, soak the gel, filter paper, and sponge pad in 4° C. pre-cooled transfer buffer for 10 min, soak the PVDF membrane with methanol for 5 min, and transfer it to the transfer buffer for 10 min after it is fully wetted. Installation The order of transfer clips: black plate, sponge, 3 layers of filter paper, gel, membrane, 3 layers of filter paper, sponge, white plate. Expel bubbles at each step and place the membrane in one go. […]
(8) Luminescence: Use the Kangwei Century Chemiluminescence Detection Kit and scan the detection results with a chemiluminescence imager.
(9) Use Photoshop software to perform semi-quantitative grayscale analysis of the image and calculate the relative expression of the protein.

[8] = system: KYSE450/AR; test: CCK8 proliferation of afatinib-resistant strain KYSE450/AR; format: cell-based; conditions: FIG. 10
Description: as §4
as §5, with “When the initial induction dose was induced for two weeks and the cell growth was stable, the drug induction dose began to be doubled, and each dose was maintained for 14 days before reaching the highest induction dose. The drug-resistant cells obtained after 10 months of induction culture were named KYSE450/IR KYSE450/AR cell lines.” left out

[9] = system: ESCC cells; test: Nude mouse tumor formation experiment, esophageal squamous cell carcinoma; format: in vivo, BALB/c nude mice; conditions: intraperitoneally 15 mg/kg or 30 mg/kg per day; 20 days
Description: • (1) Nude mouse tumor formation experiment was performed on 4-6 week old female BALB/c nude mice, with 5 nude mice in each group. Each mouse was subcutaneously injected with about 1×10^6 ESCC cells dissolved in 200 μl sterile PBS. • (2) When the tumor volume reached 150 mm^3, the mice were divided into groups and treated differently. […] If the mice were infected or in poor condition, they were treated in time. During this period, the tumor volume was measured every 3-5 days, and the volume calculation formula was length×width 2×0.5. • (4) At the end of the experiment, the mice were killed, the subcutaneous tumors were removed, photographed, weighed, and counted.

[10] = system: B16F10 (melanoma); test: B16F10 (melanoma) transplant tumor model; format: in vivo, C57BL/6 mice; conditions: Selonsertib 15 mg/kg per day i.p.; Anti-PD1 50 μg/kg once every two days; 10 days
Description: as §6

Row | SMILES | proliferation of TE10 [1] | proliferation of ECA109 [2] | migration of TE10 [3] | migration of ECA109 [4] | proliferation of KYSE450-IR [5] | proliferation of Lewis lung cancer (tumor growth) [6] | expression of P-GSK3β (ser9) [7] | expression of P-RPS6 (S235/S236) [7] | phosphorylation of RSK4 downstream substrates ([7]; different concentrations) | KYSE450/AR proliferation ([8]; 2 μm, CCK8) | resistance of esophageal squamous cell carcinoma to afatinib [8] | inhibitory effect on tumor growth compared with the positive control (BI-D1870) [9] | proliferation of melanoma (tumor growth) [10] | resistance of esophageal squamous cell carcinoma to icotinib ([5]; FIG. 9)
1 | CC(C)CCN1c2nc(Nc3cc(F)c(O)c(F)c3)ncc2N(C)C(=O)C1C (stereo not shown) [BI-D1870] | can inhibit | can inhibit | can inhibit | can inhibit | – | – | – | – | – | – | – | – | – | –
2 | C#Cc1cccc(Nc2ncnc3cc4c(cc23)OCCOCCOCCO4)c1 [icotinib] | – | – | – | – | extremely low | – | – | – | – | – | – | – | – | –
3 | Cc1cc(F)c(C(=O)Nc2cccc(-c3nncn3C(C)C)n2)cc1-n1cnc(C2CC2)c1 [Selonsertib, 5-(4-cyclopropyl-1H-imidazol-1-yl)-2-fluoro-N-(6-(4-isopropyl-4H-1,2,4-triazol-3-yl)pyridine-2-yl)-4-methylbenzamide] | can inhibit | can inhibit | can inhibit | can inhibit | can inhibit | can inhibit | downregulate | downregulate | could inhibit | basically consistent with those of KYSE450-IR | reverses the resistance | stronger inhibitory effect on tumor growth at a lower dose | can inhibit | reverses the resistance
